“And” between values parts separate entries of the source, which are not always exact repeats. Equal values may be shown once.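 Interpolation was linear, between the two tested concentrations surrounding the appropriate level; five concentrations were tested over 48 hours in 96-well plates. Abbreviation: GI50, concentration required for 50% inhibition of growth. TGI denotes the concentration required for complete inhibition of growth.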
Columns and labels:
Experiment in all cases: NCI-60 cell line screen, 48 h
A549 NSCLC = system: A549 NSCLC
SR leukemia = system: SR leukemia
HOP-92 NSCLC = system: HOP-92 NSCLC
U251 CNS = system: U251 CNS
HL-60(TB) leukemia = system: HL-60(TB) leukemia
OVCAR-8 ovarian = system: OVCAR-8 ovarian
RXF 393 renal = system: RXF 393 renal
UO-31 renal = system: UO-31 renal
MALME-3M melanoma = system: MALME-3M melanoma
SN12C renal = system: SN12C renal

Compound	GI50 (A549 NSCLC)	TGI (A549 NSCLC)	GI50 (SR leukemia)	TGI (SR leukemia)	GI50 (HOP-92 NSCLC)	TGI (HOP-92 NSCLC)	GI50 (U251 CNS)	TGI (U251 CNS)	GI50 (HL-60(TB) leukemia)	GI50 (OVCAR-8 ovarian)	TGI (OVCAR-8 ovarian)	GI50 (RXF 393 renal)	TGI (RXF 393 renal)	GI50 (UO-31 renal)	TGI (UO-31 renal)	GI50 (MALME-3M melanoma)	TGI (MALME-3M melanoma)	GI50 (SN12C renal)	TGI (SN12C renal)	TGI (HL-60(TB) leukemia)
Nc1nccc2c1ccn2-c1ccc(NC(=O)c2ccc(N3CCOCC3)c(C(F)(F)F)c2)cc1	1.39 µM	15.3 µM	0.684 µM	> 100 µM	0.418 µM	3.84 µM	0.341 µM	5.19 µM	0.479 µM	3.47 µM	19.6 µM	0.158 µM	0.378 µM	0.573 µM	4.15 µM	1.58 µM	6.71 µM	4.86 µM	20.4 µM	
Ic1ccc(-n2nnnc2-c2cnoc2-c2ccccc2)cc1	> 58.4 µM	> 100 µM	37.7 µM	> 100 µM	37.9 µM	> 100 µM	44.8 µM	> 100 µM	78.9 µM	> 50.4 µM	> 77 µM	43.1 µM	> 100 µM	> 50.5 µM	> 100 µM	> 44.2 µM	> 73.6 µM	48.9 µM	> 88.3 µM	> 100 µM
Cc1nc2cnc(N)c(C#Cc3cncc(C(=O)Nc4ccc(CN5CCN(C)CC5)c(C(F)(F)F)c4)c3)c2nc1C	0.614 µM	5.71 µM	1.67 µM	10.9 µM	0.0646 µM	0.566 µM	2.52 µM	19.5 µM	0.138 µM	1.43 µM	13.8 µM	0.515 µM	1.93 µM	1.28 µM	5.67 µM	0.0339 µM	0.163 µM	0.381 µM	11.8 µM	3.8 µM
O=C(NC(=O)c1cn(CCNCCO)c(=O)[nH]c1=O)OCc1ccccc1		> 100 µM		> 100 µM		> 100 µM		> 100 µM			> 100 µM		> 100 µM				> 100 µM		> 100 µM	> 100 µM
COc1cc(CNCCCN2C(=O)c3ccc4c5c(ccc(c35)C2=O)C(=O)N(CCCNCc2cc(OC)c(OC)c(OC)c2)C4=O)cc(OC)c1OC	0.305 µM	0.977 µM	0.18 µM	1.62 µM	1.02 µM	2.49 µM	0.257 µM	0.93 µM	0.919 µM	0.272 µM	0.959 µM	0.35 µM	0.99 µM	2.91 µM	9.48 µM	0.334 µM	1.02 µM	0.227 µM	0.475 µM	1.97 µM
C1CSCCSCCS1		> 100 µM		> 100 µM		> 100 µM		> 100 µM			> 100 µM		> 100 µM		> 100 µM				> 100 µM	> 100 µM
COc1cc(C2c3cc4c(cc3C(O)C(CO)C2CO)OCO4)cc(OC)c1OC (configuration not stated)	1.64 µM	> 100 µM	0.342 µM	> 48.5 µM	> 100 µM	> 100 µM	0.587 µM	> 100 µM	0.322 µM	2.76 µM	> 100 µM	1.12 µM	> 100 µM		> 100 µM			4.94 µM	> 100 µM	
O=C(c1c(F)ccc(NS(=O)(=O)N2CC[C@@H](F)C2)c1F)c1c[nH]c2ncc(-c3cnc(C4CC4)nc3)cc12	5.85 µM and 7.09 µM	> 10 µM and 40.3 µM	5.35 µM and 3.93 µM	> 10 µM and 79.6 µM	0.576 µM and 2.24 µM	> 10 µM and 32.8 µM	5.94 µM and 7.53 µM	> 10 µM and 39.3 µM	7.69 µM and 6.11 µM	5.22 µM and 7.06 µM	> 10 µM and 55.3 µM	3.46 µM and 4.36 µM	> 10 µM and 25 µM	3.41 µM and 3.79 µM	> 10 µM and 25.5 µM	0.00378 µM and < 0.01 µM	< 0.043 µM	4.89 µM and 4.81 µM	> 10 µM and 54.2 µM	> 10 µM and 41.3 µM
CCN1CCN=c2c3cc(OC)ccc3n3cnc4ccc1c2c43		0.67 µM		0.158 µM		6.32 µM		1.05 µM			1.4 µM		1.05 µM		0.385 µM		1.1 µM		0.433 µM	0.483 µM
CCN(CC)c1nc(-c2ccc(Cl)cc2Cl)nc2ccccc12	17.1 µM	57.2 µM	8.68 µM	> 53.2 µM	22 µM	93.4 µM	18 µM	37.2 µM	26.2 µM	31.9 µM	> 100 µM	17.2 µM	42.5 µM	24.9 µM	> 90.5 µM	18.9 µM	49.7 µM	17.2 µM	46.2 µM	> 100 µM
COc1ccc(-c2oc(=O)ccc2-c2cc(OC)c(OC)c(OC)c2)cc1F	9.91 µM	> 100 µM	1.57 µM	9.44 µM	5.69 µM	65 µM	14.5 µM	> 100 µM	3.52 µM	24.1 µM	> 100 µM	11.6 µM	29.1 µM	8.79 µM	35.8 µM	3.24 µM	> 100 µM	38.1 µM	> 100 µM	26.8 µM
N=c1ccn2c(n1)OC1C(O)C(CO)OC12 (configuration not stated)	0.337 µM	> 1000 µM	2.6 µM	> 231 µM	8.2 µM and 19.9 µM	> 811 µM	2.11 µM	> 1000 µM	0.763 µM	0.481 µM	> 1000 µM	> 25.1 µM	> 1000 µM	3.08 µM and 0.355 µM	> 1000 µM	4.22 µM	78.5 µM and > 100 µM	3.13 µM	> 621 µM	69.7 µM and > 23.6 µM
Oc1cc(O)c2c(c1)OC(c1ccc(O)c(O)c1)C(OC1(c3cc(O)c(O)c(O)c3)Oc3cc(O)cc(O)c3C(O)C1O)C2 (configuration not stated)		> 71.7 µM		84.7 µM		84.4 µM		46.2 µM			> 67.7 µM		> 100 µM		50.2 µM		> 100 µM		46.2 µM	52.8 µM
CCOc1ccc2c(c1)[n+]([O-])c(-c1ccccc1Cl)c(N)[n+]2[O-]		> 100 µM		> 100 µM		> 100 µM		> 100 µM			> 100 µM		> 100 µM		> 100 µM		> 100 µM		> 100 µM	> 100 µM
Cc1ccc(-c2nc3ccc([N+](=O)[O-])cc3[nH]2)cc1		> 100 µM		> 100 µM		> 100 µM		> 100 µM			> 100 µM		> 100 µM		> 100 µM		> 100 µM		> 100 µM	> 100 µM
CC1=C2CCCC2=C/C(=N/Nc2ccc([N+](=O)[O-])cc2[N+](=O)[O-])CC1		> 100 µM		> 100 µM		> 100 µM		> 100 µM			> 100 µM		> 100 µM		> 100 µM		> 100 µM		> 100 µM	> 100 µM
CCOC(=O)C(=Cc1cccc(Cl)c1)C(=O)OCC	11.4 µM	24.6 µM	1.55 µM	> 100 µM	1.74 µM	4.49 µM	4.47 µM	15.9 µM	2.18 µM	3.37 µM	12.8 µM	1.91 µM	3.53 µM	1.84 µM	4.12 µM			1.65 µM	3.54 µM	5.65 µM
N#C/C=C(\c1ccc([N+](=O)[O-])cc1)n1nnc2cc(Cl)c(Cl)cc21	3.45 µM	13.6 µM	1.52 µM	> 100 µM	1.78 µM	4.28 µM	1.71 µM	3.37 µM	2.71 µM	3.02 µM	12 µM	1.82 µM	3.77 µM	1.11 µM	2.32 µM	1.7 µM	4.18 µM	2.08 µM	5.4 µM	41.1 µM
C[C@H]1Oc2cc(cnc2N)-c2c(nn(C)c2C#N)CN(C)C(=O)c2ccc(F)cc21	25.4 µM	> 100 µM		> 100 µM	2.54 µM	> 54.2 µM	> 100 µM	> 100 µM	> 100 µM	98 µM	> 100 µM	16.7 µM	> 90.9 µM	13.9 µM	60.2 µM	18.8 µM	> 100 µM	43.1 µM	> 100 µM	> 100 µM
O=c1[nH]c(=O)n(C2CC(O)C(CO)O2)cc1CO (configuration not stated)	> 100 µM	> 100 µM	> 100 µM	> 100 µM	43.3 µM	> 100 µM	2.95 µM	> 100 µM	> 100 µM	> 100 µM	> 100 µM	> 100 µM	> 100 µM	> 100 µM	> 100 µM	> 100 µM	> 100 µM	91.7 µM	> 100 µM	> 100 µM
CC(=O)OC12c3ccccc3-c3ccccc3C1C1C(=O)N(C)C(=O)C12Cl (configuration not stated)				> 10 µM		> 10 µM		> 10 µM			> 10 µM		> 10 µM		> 10 µM		> 10 µM		> 10 µM	> 10 µM
CC(=O)c1cc2c(o1)C(=O)c1ccccc1C2=O	0.217 µM and 0.208 µM	0.453 µM and 0.434 µM	0.299 µM and 0.308 µM	5.36 µM	2.18 µM and 1.82 µM	4.24 µM and 3.47 µM	0.197 µM and 0.256 µM	0.378 µM and 0.682 µM	0.241 µM and 0.271 µM	0.411 µM and 0.378 µM	1.32 µM and 1.53 µM	0.239 µM and 0.249 µM	0.563 µM and 0.634 µM	0.219 µM and 0.217 µM	0.57 µM and 0.531 µM	0.18 µM and 0.143 µM	0.332 µM and 0.281 µM	0.177 µM	0.346 µM	0.641 µM and 0.773 µM
O=c1cc2oc3cc(O)c(O)cc3c(-c3ccccc3O)c-2cc1O	28.5 µM	> 100 µM	4.65 µM	> 100 µM	30.3 µM	> 100 µM	4.6 µM	> 100 µM	33.5 µM	16 µM	> 100 µM	6.5 µM	> 100 µM	3.3 µM	> 100 µM	53 µM	> 100 µM	10.7 µM	> 100 µM	99.6 µM
CC1(C)OCCn2c1nc1c(N3CCOCC3)nc(-c3cnc(N)nc3)nc12	0.283 µM	4.4 µM	0.752 µM	> 83.6 µM	0.141 µM	1.84 µM	0.673 µM	34 µM	0.141 µM	0.404 µM	11.2 µM	0.211 µM	1.69 µM	0.0912 µM	1.11 µM	0.0974 µM	0.6 µM	0.301 µM	> 48.3 µM	> 31.3 µM
O=C1[C@@H]2C3c4ccccc4C([C@@H]2C(=O)N1c1ccccc1)S3(=O)=O				> 100 µM		> 100 µM		> 100 µM			> 100 µM		> 100 µM		> 100 µM		> 100 µM		> 100 µM	> 100 µM
C=CC(=O)N1CCC(C2CCNc3c(C(N)=O)c(-c4ccc(Oc5ccccc5)cc4)nn32)CC1 (configuration not stated)	21.2 µM	> 100 µM	10.4 µM	46.8 µM	2.47 µM	15.7 µM	19.7 µM	96.3 µM	14.6 µM	16.9 µM	59.2 µM	9.22 µM	26.6 µM	1.94 µM	24.3 µM	14 µM	34.6 µM	13.4 µM	> 100 µM	40.3 µM
COC1[C@@H](OC(C)=O)[C@@H](NC(=O)C(Cl)(Cl)Cl)C(I)[C@@H](N2C(=O)c3ccccc3C2=O)[C@H]1OC (some centres not stated)		> 100 µM		> 100 µM		> 100 µM		> 100 µM			> 100 µM		> 100 µM						> 100 µM	> 100 µM
COC12C=C/C(=C(/C(=O)OCc3ccncc3)C(=O)CCCCCCCCC3(OC)C=C/C(=C(/C(=O)OCc4ccncc4)C(=O)CCCCCCCC1)O3)O2	0.979 µM	2.8 µM	0.191 µM	7.01 µM	1.23 µM	2.36 µM	0.5 µM	1.46 µM	0.371 µM	0.219 µM	50 µM	0.277 µM	0.896 µM	0.641 µM	1.4 µM			0.471 µM	3.89 µM	1.96 µM
CCc1cccc(C)c1NC(=O)C(=O)Cc1nc2ccccc2o1				> 100 µM		> 100 µM		> 100 µM			> 100 µM		> 100 µM		> 100 µM		> 100 µM		> 100 µM	> 100 µM
CN(C)c1c([O-])c(=[N+](C)C)c1=O		> 100 µM		> 100 µM		> 100 µM		> 100 µM			> 100 µM		> 100 µM		> 100 µM				> 100 µM	> 100 µM

— PubChem BioAssay (NCI)
